Measurements taken from patent US20100286149A1, “NOVEL BENZAMIDE DERIVATIVES USEFUL AS POTASSIUM CHANNEL MODULATORS” (priority 2007, published 2010).

How the values were obtained:
[1] = target: T1, BK channels heterologously expressed in Xenopus laevis oocytes (Homo sapiens, UniProt Q12791); assay: BK channel opening activity, two-electrode voltage clamp in Xenopus laevis oocytes; format: cell-based
T1 construct: expressed in transfected cells; host or cells: Xenopus laevis oocytes
Description: In this example the BK channel opening activity of Compound 12 (i.e. N-[5-Chloro-2-(1H-tetrazol-5-yl)-phenyl]-4-dipropylsulfamoyl-benzamide) is determined using BK channels heterologously expressed in Xenopus laevis oocytes.
The electrical current through the BK channel was measured using conventional two-electrode voltage clamp. BK currents were activated by repeating ramp protocols. In brief, the membrane potential was continuously changed from −120 mV to +120 mV within a 2 s period. The threshold for BK activation is approximately +30 mV under control conditions. Compounds were applied for 100 s during which the ramp protocol was repeated 10 times with 10 s intervals. In between the ramp protocols the membrane potential was clamped at −80 mV. The first three compound applications were control blanks where the current level is allowed to stabilize.
In order to evaluate the ability of the compounds to shift the BK activation curve towards lower membrane potentials, the BK current was transformed into conductance by using Ohm's law g=I/(Ememb−Erev), where g is the conductance, I is the current, Ememb is the membrane potential and Erev is the reversal potential. The extracellular solution for these experiments contained 2.5 mM K+ and the intracellular K+ concentration of an oocyte was estimated to be 100 mM. Under those conditions, Nernst equation predicts a reversal potential of Erev=−93.2 mV. The control conductance level at a membrane potential of +100 mV was calculated, and the compound effect was evaluated as the potential difference, ΔV, to the membrane potential at which the same conductance level was obtained in the presence of compound.
The concentration response curve for this potential difference was fitted to the sigmoidal logistic equation: ΔV=ΔVmax/(1+(EC50/[compound])^n), where ΔVmax represents the maximal left shift of the BK activation curve, EC50 is the concentration causing a half maximal response, and n is the slope coefficient.

T1 sequence (Q12791 whole entry): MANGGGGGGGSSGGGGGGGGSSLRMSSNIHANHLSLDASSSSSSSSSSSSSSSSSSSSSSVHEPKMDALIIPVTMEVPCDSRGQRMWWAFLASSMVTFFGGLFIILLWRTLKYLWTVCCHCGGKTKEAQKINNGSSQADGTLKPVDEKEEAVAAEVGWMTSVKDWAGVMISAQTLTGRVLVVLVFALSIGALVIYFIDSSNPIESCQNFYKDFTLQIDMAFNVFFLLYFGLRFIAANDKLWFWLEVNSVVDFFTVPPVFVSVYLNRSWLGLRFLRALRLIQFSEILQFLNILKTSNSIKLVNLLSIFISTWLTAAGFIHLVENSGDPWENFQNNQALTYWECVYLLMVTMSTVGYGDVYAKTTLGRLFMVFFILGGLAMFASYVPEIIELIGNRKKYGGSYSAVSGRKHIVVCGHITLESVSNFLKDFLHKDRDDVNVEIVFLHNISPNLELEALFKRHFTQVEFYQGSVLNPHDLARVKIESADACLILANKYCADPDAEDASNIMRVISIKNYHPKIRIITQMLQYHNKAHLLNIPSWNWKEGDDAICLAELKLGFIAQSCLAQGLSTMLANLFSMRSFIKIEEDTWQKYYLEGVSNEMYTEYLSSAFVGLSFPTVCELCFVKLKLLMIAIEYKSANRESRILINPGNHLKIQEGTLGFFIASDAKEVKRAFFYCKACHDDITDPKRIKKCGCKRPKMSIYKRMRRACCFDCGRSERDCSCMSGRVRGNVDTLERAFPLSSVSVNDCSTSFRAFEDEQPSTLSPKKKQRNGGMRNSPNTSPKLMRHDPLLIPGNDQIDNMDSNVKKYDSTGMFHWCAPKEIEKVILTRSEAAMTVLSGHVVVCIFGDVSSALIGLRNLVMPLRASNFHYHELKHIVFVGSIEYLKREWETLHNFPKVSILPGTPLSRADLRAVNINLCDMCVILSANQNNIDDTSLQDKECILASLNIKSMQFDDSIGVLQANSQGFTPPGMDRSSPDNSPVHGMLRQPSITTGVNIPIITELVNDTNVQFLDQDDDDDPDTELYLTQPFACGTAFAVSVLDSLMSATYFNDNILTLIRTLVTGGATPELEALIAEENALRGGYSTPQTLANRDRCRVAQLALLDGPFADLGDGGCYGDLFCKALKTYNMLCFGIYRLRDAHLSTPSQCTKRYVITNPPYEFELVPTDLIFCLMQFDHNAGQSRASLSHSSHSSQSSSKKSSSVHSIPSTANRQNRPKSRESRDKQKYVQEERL

Compound | melting point | ΔVmax, maximal left shift of the BK activation curve ([1]; BKCa channels expressed in Xenopus oocytes, 0.01-31.6 μM, sigmoidal logistic fit) | EC50 ([1]; BKCa channels expressed in Xenopus oocytes, ramp −120 to +120 mV, 0.01-31.6 μM, ΔV at control conductance level of +100 mV, sigmoidal logistic fit, read-out: EC50 for the left-shift of the BK activation curve (ΔV)) | BK current level at depolarizing potentials ([1]; increasing concentrations (0.01-31.6 μM) applied, 100 s each, ramp protocol)
O=C(Nc1cc(Cl)ccc1-c1nnn[nH]1)c1cc(C(F)(F)F)cc(C(F)(F)F)c1 [Compound 4, N-[5-Chloro-2-(1H-tetrazol-5-yl)-phenyl]-3,5-bis-trifluoromethyl-benzamide] | 247 to 249 °C |  |  | 
CCCN(CCC)S(=O)(=O)c1ccc(C(=O)Nc2cc(Cl)ccc2-c2nnn[nH]2)cc1 [Compound 12, N-[5-Chloro-2-(1H-tetrazol-5-yl)-phenyl]-4-dipropylsulfamoyl-benzamide] |  | −110 mV | 1.3 µM | marked increase in the current level at depolarizing potentials
O=C(Nc1cc(Cl)ccc1-c1nnn[nH]1)c1ccc2ccccc2c1O [Compound 8, 1-Hydroxy-naphthalene-2-carboxylic acid [5-chloro-2-(1H-tetrazol-5-yl)-phenyl]-amide] | 221 to 225 °C |  |  | 
